Measured values as given in BindingDB's records for doi:10.1016/j.bmc.2010.10.023 (Chugai Pharmaceutical, 2010).
pIC50: −log10 of the molar value.

Experiment: Antagonist activity at AR in human bicalutamide-resistant LNCAP cells assessed as inhibition of cell proliferation after 6 days

`CC1(C)C(=O)N(c2ccc(C#N)c(C(F)(F)F)c2)C(=S)N1c1ccccc1` [4-(3-Phenyl-4,4-dimethyl-5-oxo-2-thioxoimidazolidin-1-yl)-2-trifluoromethylbenzonitrile] and `CC1(C)C(=O)N(c2ccc(C#N)c(C(F)(F)F)c2)C(=S)N1c1cccc(S(N)(=O)=O)c1` [3-[3-(4-Cyano-3-trifluoromethylphenyl)-5,5-dimethyl-4-oxo-2-thioxoimidazolidin-1-yl]benzenesulfonamide] are the same in pIC50: 7.00 for the first, 7.00 for the second.

Compared with `CC1(C)C(=O)N(c2ccc(C#N)c(C(F)(F)F)c2)C(=S)N1c1ccnc(S(N)(=O)=O)c1` [4-[3-(4-Cyano-3-trifluoromethylphenyl)-5,5-dimethyl-4-oxo-2-thioxoimidazolidin-1-yl]pyridine-2-sulfonic acid amide], `CC1(C)C(=O)N(c2ccc(C#N)c(C(F)(F)F)c2)C(=S)N1c1cncc(S(N)(=O)=O)c1` [5-[3-(4-Cyano-3-trifluoromethylphenyl)-5,5-dimethyl-4-oxo-2-thioxoimidazolidin-1-yl]pyridine-3-sulfonic acid amide] is 0.42 log units higher in pIC50: 7.10 for the first, 7.52 for the second. The second is the more potent here.

First: CC1(C)C(=O)N(c2ccc(C#N)c(Cl)c2)C(=S)N1c1cncc(S(N)(=O)=O)c1 [5-[3-(3-Chloro-4-cyanophenyl)-5,5-dimethyl-4-oxo-2-thioxoimidazolidin-1-yl]pyridine-3-sulfonic acid amide]
Second: CC1(C)C(=O)N(c2ccc(C#N)c(Cl)c2)C(=S)N1c1cccc(S(N)(=O)=O)c1 [3-[3-(3-Chloro-4-cyanophenyl)-5,5-dimethyl-4-oxo-2-thioxoimidazolidin-1-yl]benzenesulfonamide]
The pIC50 of the first is 0.30 log units higher: 7.30 for the first, 7.00 for the second. The first is the more potent here.

First: CC1(C)C(=O)N(c2ccc(C#N)c(Cl)c2)C(=S)N1CCCS(N)(=O)=O [3-[3-(3-Chloro-4-cyanophenyl)-5,5-dimethyl-4-oxo-2-thioxoimidazolidin-1-yl]propane-1-sulfonamide]
Second: CC1(C)C(=O)N(c2ccc(C#N)c(Cl)c2)C(=S)N1c1cccc(S(N)(=O)=O)n1 [6-[3-(3-Chloro-4-cyanophenyl)-5,5-dimethyl-4-oxo-2-thioxoimidazolidin-1-yl]pyridine-2-sulfonic acid amide]
The pIC50 of the first is 1.00 log units higher: 8.00 for the first, 7.00 for the second.

Compound `CC1(C)C(=O)N(c2ccc(C#N)c(C(F)(F)F)c2)C(=S)N1c1cccc(S(N)(=O)=O)n1` [6-[3-(4-Cyano-3-trifluoromethylphenyl)-5,5-dimethyl-4-oxo-2-thioxoimidazolidin-1-yl]pyridine-2-sulfonic acid amide] has a pIC50 of 7.00.
